This is an account of results in publication PMC10222270, “Natural Product-Based Screening for Lead Compounds Targeting SARS CoV-2 M^pro” (Pharmaceuticals, 2023).

For the assay, the target named is T1, SARS CoV-2 M^pro (Severe acute respiratory syndrome coronavirus 2, UniProt P0DTD1).
T1 construct: The main protease (M^pro) is a part of the polyprotein chain, also named 3C-like protease; SUMO (cleaved yes); His; made in house; host or cells: Escherichia coli BL21(DE3)
Briefly: biochemical. Conditions: for inhibition at 80 µM: read-out: Inhibition%(80μM). Format: biochemical.

Structures are written as SMILES. Values joined by “and” are separate entries in the source; they are usually repeats but may differ in a detail not shown here. Identical values can stand only once. Like-named read-outs stand apart in the source and are kept apart here.

For the compound `O=C1O[C@H]2[C@@H]3OC(=O)c4cc(O)c(O)c(O)c4-c4c(O)c(O)c5oc(=O)c6c(c(O)c(O)c7oc(=O)c4c5c76)-c4c(cc(O)c(O)c4O)C(=O)OC[C@H]3OC(O)[C@@H]2OC(=O)c2cc(O)c(O)c(O)c2-c2c1cc(O)c(O)c2O` (mixture of isomers) [Punicalagin], the “Inhibition%(80μM)” value is 73.51% and 73.40%; the inhibition – broadly, the change of the read-out against control, counted positive when it falls – at 80 µM was 75%. `CC(C)=CCC(O)C1=CC(=O)c2c(O)ccc(O)c2C1=O` (racemic) [(±)-Shikonin]: the “Inhibition%(80μM)” value was 95.04% and 93.71%; the inhibition at 80 µM was found to be 87.6%. Consider `O=C(/C=C/c1ccc(O)c(O)c1)O[C@@H]1C[C@@](OC(=O)/C=C/c2ccc(O)c(O)c2)(C(=O)O)C[C@@H](O)[C@@H]1O` [1,5-Dicaffeoylquinic Acid], for which the “Inhibition%(80μM)” value was 75.61% and 71.24%; the inhibition at 80 µM turned out to be 74.6%. With `CC(=O)O[C@H]1[C@H](OCCc2ccc(O)c(O)c2)O[C@H](CO)[C@@H](OC(=O)/C=C/c2ccc(O)c(O)c2)[C@@H]1O[C@@H]1O[C@@H](C)[C@H](O)[C@@H](O)[C@H]1O` [2'-Acetylacteoside], the “Inhibition%(80μM)” value is 93.37% and 90.77%; the inhibition at 80 µM turned out to be 90.6%. Take `CC1=CC(=O)C=C(C)C1=O` [2,6-Dimethylbenzoquinone]: the “Inhibition%(80μM)” value is 101.34% and 101.15%; the inhibition at 80 µM was 102%. Turning to `O=c1c(O)c(-c2ccc(O)c(O)c2)oc2cc(O)c(O)c(O)c12` [3,3',4',5,6,7-Hexahydroxyflavone], the “Inhibition%(80μM)” value is 99.40% and 98.98% and 98.10%.

In the case of `O=C(O)Cc1ccc(O)c(O)c1` [3,4-Dihydroxyphenylacetic Acid], the “Inhibition%(80μM)” value is 71.59% and 70.57%; the inhibition at 80 µM is 72.4%.

As to `OCCc1ccc(O)c(O)c1` [3,4-Dihydroxyphenylethanol], the “Inhibition%(80μM)” value is 102.33% and 102.25%; the inhibition at 80 µM is 101%. `CC(=O)OC(C)(C)CC(=O)O[C@@H](CC=C(C)C)C1=CC(=O)c2c(O)ccc(O)c2C1=O` [3-(Acetyloxy)-3-methylbutanoic acid (1S)-1-(1,4-dihydro-5,8-dihydroxy-1,4-dioxo-2-naphthalenyl)-4-methyl-3-pentenyl ester]: the “Inhibition%(80μM)” value is 93.12% and 92.58% and 93.44%. For `Cc1ccc(O)c(O)c1` [4-Methylcatechol], the “Inhibition%(80μM)” value was 102.51% and 102.92%; the inhibition at 80 µM amounted to 103%. Regarding `Cc1cc(=O)oc2cc(O)c(O)cc12` [4-Methylesculetin], the “Inhibition%(80μM)” value turned out to be 77.57% and the inhibition at 80 µM came out at 79.1%. Moreover, the inhibition at 80 µM (80 μM compound, second value column of Table S2) turned out to be 79.9%. Take `COC(=O)[C@@H](Cc1ccc(O)c(O)c1)OC(=O)[C@@H]1c2c(/C=C/C(=O)O[C@H](Cc3ccc(O)c(O)c3)C(=O)O)ccc(O)c2O[C@H]1c1ccc(O)c(O)c1` [9'-Methyl Lithospermate B]: the “Inhibition%(80μM)” value was 72.67% and 74.36%; the inhibition at 80 µM was 73.6%. With `CCCCCCCC/C=C\CCCCCCCCC(=O)O` [10Z-Nonadecenoic acid], the “Inhibition%(80μM)” value was 126.52% and 101.02% and 101.53%. `OC[C@]1(O)COc2cc(O)ccc2-c2cc(O)c(O)cc2C1` [(7S)-3,7,10,11-Tetrahydroxy-7,8-dihydro-6H-dibenzo[b,d]oxocin-7-methanol]: the “Inhibition%(80μM)” value was 101.15% and 101.14% and 101.45%. On to `O=C(O[C@@H]1Cc2c(O)cc(O)cc2O[C@@H]1c1cc(O)c(O)c(O)c1)c1cc(O)c(O)c(O)c1` [(-)-Epigallocatechin Gallate], for which the “Inhibition%(80μM)” value was 85.53% and 79.02%; the inhibition at 80 µM turned out to be 82.6%.

As to `CC(C)=CCC(OC(=O)C=C(C)C)C1=CC(=O)c2c(O)ccc(O)c2C1=O` (stereo not drawn) [(β,β-Dimethylacryl)Shikonin], the “Inhibition%(80μM)” value is 82.39% and 82.91% and 82.80%. For `O=C(O[C@@H]1Cc2c(O)cc(O)cc2O[C@H]1c1cc(O)c(O)c(O)c1)c1cc(O)c(O)c(O)c1` [(−)–gallocatechin gallate, (-)-Gallocatechin Gallate], the “Inhibition%(80μM)” value was 102.08% and 101.74%; the inhibition at 80 µM stood at 101%.
